This experiment deals with hemolysin of Aeromonas hydrophila (嗜水气单胞菌 溶血素). Nature of the experiment: Quantitative beta-hemolysin assay (5% rabbit red blood cells). It counts as cell-based, Aeromonas hydrophila AH08.

In general, inhibition refers to how much of the control response was suppressed. `O=C(O[C@@H]1Cc2c(O)cc(O)cc2O[C@@H]1c1cc(O)c(O)c(O)c1)c1cc(O)c(O)c(O)c1` [EGCG, 表没食子儿茶素-3-没食子酸酯]: the inhibition at 256 µg/mL (Aeromonas hydrophila, Erythrocyte, 256 μg/ml, compared with blank control, read-out: inhibition rate of hemolysin) amounted to 28.2%. For the same molecule, under “high concentration EGCG”, the “inhibition of hemolytic activity (in words)” value is on record as “显著抑制”.

Values taken from CN116139126A, “表没食子儿茶素-3-没食子酸酯在制备嗜水气单胞菌的群体感应抑制剂中的应用” (Yueyang Yumeikang Bio Tech Co ltd, priority 2023, dated 2023).
